Source: the supplement of paper PMC5908809

What was measured:
[1] = system: normal NK cells expanded with K562-aAPC; assay: percent inhibition of viability; higher = more inhibition; conditions: 72 h, IL-2 2.5 ng/mL
Protocol: (§1)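 Drug sensitivity and resistance testing on K562-aAPC-expanded normal NK cells: 5 concentrations (10-fold steps over a 10,000-fold range), 72 h at 37 °C, viability by CellTiter-Glo normalised to DMSO and benzethonium chloride controls; DSS from the fitted curve.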

DERL-7 (IL-2 2.5 ng/mL) [2] = assay: as above; conditions: 72 h
IMC-1 (IL-2 20 ng/mL) [3] = assay: as above; conditions: 72 h
KAI3 (IL-2 2.5 ng/mL) [4] = assay: as above; conditions: 72 h
KHYG-1 (IL-2 2.5 ng/mL) [5] = assay: as above; conditions: 72 h
NK-92 (IL-2 2.5 ng/mL) [6] = assay: as above; conditions: 72 h
NK-YS (IL-2 2.5 ng/mL) [7] = assay: as above; conditions: 72 h
NKL (IL-2 2.5 ng/mL) [8] = assay: as above; conditions: 72 h
SNK-6 (IL-2 2.5 ng/mL) [9] = assay: as above; conditions: 72 h
YT (IL-2 2.5 ng/mL) [10] = assay: as above; conditions: 72 h
[11] = system: normal primary NK cells, pool 1 (3 donors) (IL-2 2.5 ng/mL); assay: as above; conditions: 72 h
[12] = system: normal primary NK cells, pool 1 (3 donors), resting (IL-2 0 ng/mL); assay: as above; conditions: 72 h
[13] = system: normal primary NK cells, pool 2 (3 donors) (IL-2 2.5 ng/mL); assay: as above; conditions: 72 h
[14] = system: normal primary NK cells, pool 3 (3 donors) (IL-2 2.5 ng/mL); assay: as above; conditions: 72 h
[15] = system: normal NK cells expanded with K562-aAPC; assay: drug sensitivity score (DSS) (DSS units); higher = more sensitive; extreme values may be limits of the assay; conditions: 72 h; IL-2 2.5 ng/mL
Protocol: as §1

DERL-7 (IL-2 2.5 ng/mL) [16] = assay: as above; conditions: 72 h
IMC-1 (IL-2 20 ng/mL) [17] = assay: as above; conditions: 72 h
KAI3 (IL-2 2.5 ng/mL) [18] = assay: as above; conditions: 72 h
KHYG-1 (IL-2 2.5 ng/mL) [19] = assay: as above; conditions: 72 h
NK-92 (IL-2 2.5 ng/mL) [20] = assay: as above; conditions: 72 h
NK-YS (IL-2 2.5 ng/mL) [21] = assay: as above; conditions: 72 h
NKL (IL-2 2.5 ng/mL) [22] = assay: as above; conditions: 72 h
SNK-6 (IL-2 2.5 ng/mL) [23] = assay: as above; conditions: 72 h
YT (IL-2 2.5 ng/mL) [24] = assay: as above; conditions: 72 h
[25] = system: normal primary NK cells, pool 1 (3 donors) (IL-2 2.5 ng/mL); assay: as above; conditions: 72 h
[26] = system: normal primary NK cells, pool 1 (3 donors), resting (IL-2 0 ng/mL); assay: as above; conditions: 72 h
[27] = system: normal primary NK cells, pool 2 (3 donors) (IL-2 2.5 ng/mL); assay: as above; conditions: 72 h
[28] = system: normal primary NK cells, pool 3 (3 donors) (IL-2 2.5 ng/mL); assay: as above; conditions: 72 h

CCc1cc2c(cc1N1CCC(N3CCOCC3)CC1)C(C)(C)c1[nH]c3cc(C#N)ccc3c1C2=O [Alectinib] (max concentration tested 1000 nM)
percent inhibition of viability [%]
Conditions	0.1 nM	1 nM	10 nM	100 nM	1000 nM
DERL-7 (IL-2 2.5 ng/mL) [2]	-1.51	-2.79	-1.59	-8.82	13
IMC-1 (IL-2 20 ng/mL) [3]	-2.94	1.06	-2.15	-2.79	-0.64
KAI3 (IL-2 2.5 ng/mL) [4]	-3.74	3.89	3.63	1.36	-4
KHYG-1 (IL-2 2.5 ng/mL) [5]	-3.94	0.6	-1.88	10.3	14.5
NK-92 (IL-2 2.5 ng/mL) [6]	-7.49	-8.89	-12	9.46	24.4
NK-YS (IL-2 2.5 ng/mL) [7]	-5.67	-3.61	-7.75	6.14	18.4
NKL (IL-2 2.5 ng/mL) [8]	-9	-7.92	-11.6	-10.4	20.1
SNK-6 (IL-2 2.5 ng/mL) [9]	-2.43	-0.7	-18.9	-29	-2.44
YT (IL-2 2.5 ng/mL) [10]	-3.8	-4.08	-6.26	0.11	2.48
[1]	0.14	-2.95	-2.33	-2.36	4.52
[11]	-1.7	-9.82	-10.4	-1.45	0.6
[12]	-6.37	-4.08	-8.77	1.83	12.5
[13]	-3.03	-7.68	-3.35	-8.46	3.39
[14]	-8.17	-9.65	-5.32	-8.21	-0.39

Conditions	drug sensitivity score
DERL-7 (IL-2 2.5 ng/mL) [16]	0.02
IMC-1 (IL-2 20 ng/mL) [17]	0
KAI3 (IL-2 2.5 ng/mL) [18]	0
KHYG-1 (IL-2 2.5 ng/mL) [19]	0.86
NK-92 (IL-2 2.5 ng/mL) [20]	2.08
NK-YS (IL-2 2.5 ng/mL) [21]	1.14
NKL (IL-2 2.5 ng/mL) [22]	0.33
SNK-6 (IL-2 2.5 ng/mL) [23]	0
YT (IL-2 2.5 ng/mL) [24]	0
[15]	0
[25]	0
[26]	0.17
[27]	0
[28]	0

CN1CCC(CNc2ccc3ncc(-c4cccc(OC(F)(F)F)c4)n3n2)CC1 [SGI-1776] (max concentration tested 10000 nM)
percent inhibition of viability [%]
Conditions	1 nM	10 nM	100 nM	1000 nM	10000 nM
DERL-7 (IL-2 2.5 ng/mL) [2]	4.46	1.8	11.3	43.9	101
IMC-1 (IL-2 20 ng/mL) [3]	-2.53	-0.64	0.12	-0.28	101
KAI3 (IL-2 2.5 ng/mL) [4]	-4.36	-2.13	-0.56	14.2	104
KHYG-1 (IL-2 2.5 ng/mL) [5]	2.2	0.67	5.12	10.8	104
NK-92 (IL-2 2.5 ng/mL) [6]	0.53	2.3	2.24	6.57	105
NK-YS (IL-2 2.5 ng/mL) [7]	2.39	2.07	3.08	7.09	105
NKL (IL-2 2.5 ng/mL) [8]	-15.4	-12.2	-2.55	18.8	103
SNK-6 (IL-2 2.5 ng/mL) [9]	11.8	-1.96	7.5	-1.42	101
YT (IL-2 2.5 ng/mL) [10]	2.03	-1.52	2.24	5.9	105
[1]	0.39	2.03	3.74	25.6	101
[11]	-1.59	-15.9	0.28	11.6	101
[12]	4.88	-2.56	18.3	29.4	99.8
[13]	-5.28	-4.01	7.14	23.6	102
[14]	-9.4	-9.39	-5.33	7.82	100

Conditions	drug sensitivity score
DERL-7 (IL-2 2.5 ng/mL) [16]	10.6
IMC-1 (IL-2 20 ng/mL) [17]	5.65
KAI3 (IL-2 2.5 ng/mL) [18]	7.99
KHYG-1 (IL-2 2.5 ng/mL) [19]	7.47
NK-92 (IL-2 2.5 ng/mL) [20]	6.86
NK-YS (IL-2 2.5 ng/mL) [21]	6.92
NKL (IL-2 2.5 ng/mL) [22]	8.62
SNK-6 (IL-2 2.5 ng/mL) [23]	5.51
YT (IL-2 2.5 ng/mL) [24]	6.74
[15]	9.44
[25]	7.48
[26]	9.01
[27]	9.22
[28]	6.78

CC[C@@]1(O)C(=O)OCc2c1cc1n(c2=O)Cc2cc3ccccc3nc2-1 [Camptothecin] (max concentration tested 5000 nM)
percent inhibition of viability [%]
Conditions	0.5 nM	5 nM	50 nM	500 nM	5000 nM
DERL-7 (IL-2 2.5 ng/mL) [2]	1	20.8	97.7	92.9	100
IMC-1 (IL-2 20 ng/mL) [3]	-1.32	4.46	99.7	100	100
KAI3 (IL-2 2.5 ng/mL) [4]	11.5	49.2	86.9	62.4	97.2
KHYG-1 (IL-2 2.5 ng/mL) [5]	-0.47	50.6	101	102	99.9
NK-92 (IL-2 2.5 ng/mL) [6]	4.55	41.4	101	102	99.6
NK-YS (IL-2 2.5 ng/mL) [7]	0.45	66.1	93.3	87.5	100
NKL (IL-2 2.5 ng/mL) [8]	11.3	91.1	102	98.4	92.3
SNK-6 (IL-2 2.5 ng/mL) [9]	19.8	56.5	96.8	98	99.4
YT (IL-2 2.5 ng/mL) [10]	-3.33	5.46	90	100	99.6
[1]	4.05	11.2	54.7	59.6	97.7
[11]	-11.7	2.76	-4.81	19.9	41.6
[12]	-1.99	11.5	-26.2	-25.7	-5.52
[13]	-7.85	0.79	8.18	26.8	60.9
[14]	0.98	3.16	10.9	36.9	60.6

Conditions	drug sensitivity score
DERL-7 (IL-2 2.5 ng/mL) [16]	33.3
IMC-1 (IL-2 20 ng/mL) [17]	31
KAI3 (IL-2 2.5 ng/mL) [18]	36.2
KHYG-1 (IL-2 2.5 ng/mL) [19]	36.8
NK-92 (IL-2 2.5 ng/mL) [20]	35.6
NK-YS (IL-2 2.5 ng/mL) [21]	38.3
NKL (IL-2 2.5 ng/mL) [22]	43.1
SNK-6 (IL-2 2.5 ng/mL) [23]	37.5
YT (IL-2 2.5 ng/mL) [24]	29.5
[15]	19.8
[25]	4.65
[26]	0
[27]	6.31
[28]	8.23

O=C(Nc1ccc(-c2ccnc(Nc3ccc(N4CCOCC4)cc3)n2)cc1)C1CCCN1 (stereo not given) [XL019] (max concentration tested 10000 nM)
percent inhibition of viability [%]
Conditions	1 nM	10 nM	100 nM	1000 nM	10000 nM
DERL-7 (IL-2 2.5 ng/mL) [2]	0.19	0.52	7.06	25.9	71.8
IMC-1 (IL-2 20 ng/mL) [3]	-1.28	-4.89	1.81	-0.33	61.4
KAI3 (IL-2 2.5 ng/mL) [4]	-6.77	-0.02	6.51	18.2	83.2
KHYG-1 (IL-2 2.5 ng/mL) [5]	-4.32	-2.94	2.79	6.64	81.2
NK-92 (IL-2 2.5 ng/mL) [6]	1.46	-2	-6.58	-8.42	44.8
NK-YS (IL-2 2.5 ng/mL) [7]	-3	-6.33	-0.83	6.03	49.6
NKL (IL-2 2.5 ng/mL) [8]	-2.13	4.85	23.2	31.3	72.5
SNK-6 (IL-2 2.5 ng/mL) [9]	-2.35	-15.3	3.5	-9.49	27.1
YT (IL-2 2.5 ng/mL) [10]	0.46	-0.22	5.02	2.15	33.3
[1]	-3.5	-1.96	2.68	12.6	72
[11]	-9.78	0.22	-10.4	9.22	80
[12]	1.73	2.9	-4.73	19.1	61.7
[13]	-2.68	-3.46	-5.23	19.5	74.1
[14]	-1.82	6.1	-1.33	13.9	81.2

Conditions	drug sensitivity score
DERL-7 (IL-2 2.5 ng/mL) [16]	6.99
IMC-1 (IL-2 20 ng/mL) [17]	3.31
KAI3 (IL-2 2.5 ng/mL) [18]	7.51
KHYG-1 (IL-2 2.5 ng/mL) [19]	5.54
NK-92 (IL-2 2.5 ng/mL) [20]	1.81
NK-YS (IL-2 2.5 ng/mL) [21]	3.62
NKL (IL-2 2.5 ng/mL) [22]	9.26
SNK-6 (IL-2 2.5 ng/mL) [23]	0.74
YT (IL-2 2.5 ng/mL) [24]	1.85
[15]	6.07
[25]	5.96
[26]	6.18
[27]	7.07
[28]	6.8

Cc1cnc(Nc2ccc(OCCN3CCCC3)cc2)nc1Nc1cccc(S(=O)(=O)NC(C)(C)C)c1 [Fedratinib] (max concentration tested 10000 nM)
percent inhibition of viability [%]
Conditions	1 nM	10 nM	100 nM	1000 nM	10000 nM
IMC-1 (IL-2 20 ng/mL) [3]	-6.81	-6.37	-28.8	55	101
[1]	-1.65	-2.82	11.2	73.8	101
[13]	-1.22	-4.41	13.2	72.5	100
[14]	-3.74	-2.87	15.8	68.8	100

Conditions	drug sensitivity score
IMC-1 (IL-2 20 ng/mL) [17]	12.1
[15]	15.3
[27]	15.3
[28]	14.9
